Test results reported in patent US20120270237A9, “METHODS FOR THE IDENTIFICATION OF KINASE INTERACTING MOLECULES AND FOR THE PURIFICATION OF KINASE PROTEINS” (Cellzone AG, priority 2009, published 2012).

What was measured:
Conditions in all cases: 10 μM free compound
Erk1 = Erk1 (Homo sapiens, UniProt P27361); test: Kinobeads competition binding, HL60 cell lysate; parameters: endogenous in cells; host or cells: HL60 (DSMZ ACC3)
Protocol: To one aliquot of cell lysate 10 μM of the free compound (FIG. 3, CZC31326) was added and allowed to bind to proteins in the lysate. Then the affinity matrix with the immobilized compound (Example 1) was added to capture proteins that were not interacting with the previously added free compound. Beads were separated from the lysate and bead bound proteins were eluted in SDS sample buffer and subsequently separated by SDS-Polyacrylamide gel electrophoresis (FIG. 4). Suitable gel bands were cut out and subjected to in-gel proteolytic digestion with trypsin. The second lysate aliquot was processed identically, however no free compound was added (DMSO solvent control). Peptides originating from samples 1 and 2 were labeled with iTRAQ reagents (iTRAQ 114 and iTRAQ 117) and the combined samples were analyzed with a nano-flow liquid chromatography system coupled online to a tandem mass spectrometer (LC-MS/MS) experiment followed by iTRAQ reporter ion quantification in the MS/MS spectra (Ross et al., 2004. Mol. Cell. Proteomics 3(12):1154-1169). Further experimental protocols can be found in WO2006/134056 and a previous publication (Bantscheff et al., 2007. Nature Biotechnology 25, 1035-1044). Sepharose-beads with the immobilized compound (100 μl beads per pull-down experiment) were equilibrated in lysis buffer and incubated with a cell lysate sample containing 50 mg of protein on an end-over-end shaker (Roto Shake Genie, Scientific Industries Inc.) for 2 hours at 4° C. […] The iTRAQ reagents are a set of multiplexed, amine-specific, stable isotope reagents that can label peptides on amino groups in up to four different biological samples enabling simultaneous identification and quantitation of peptides. […] Relative protein quantitation was performed using peak areas of iTRAQ reporter ion signals essentially as described in an earlier publication (Bantscheff et al., 2007. Nature Biotechnology 25, 1035-1044).

AurB = AurB (Homo sapiens, UniProt Q96GD4); test: Kinobeads competition binding, HeLa Placenta lysate mix; parameters: capturing and identification of kinases from mixed HeLa placenta lysates; endogenous in cells; host or cells: mixed lysate of HeLa cells and placenta tissue
Protocol: (§1) To one aliquot of cell lysate 10 μM of the free compound (FIG. 3, CZC31326) was added and allowed to bind to proteins in the lysate. Then the affinity matrix with the immobilized compound was added to capture proteins that were not interacting with the previously added free compound. Beads were separated from the lysate and bead bound proteins were eluted in SDS sample buffer and subsequently separated by SDS-Polyacrylamide gel electrophoresis (FIG. 10). Suitable gel bands were cut out and subjected to in-gel proteolytic digestion with trypsin. The second lysate aliquot was processed identically, however no free compound was added (DMSO solvent control). Peptides originating from samples 1 and 2 were labeled with iTRAQ reagents (iTRAQ 114 and iTRAQ 117) and the combined samples were analyzed with a nano-flow liquid chromatography system coupled online to a tandem mass spectrometer (LC-MS/MS) experiment followed by iTRAQ reporter ion quantification in the MS/MS spectra as described in Example 2.

CaMK2d = CaMK2d (Homo sapiens, UniProt Q13557); test: as above; parameters: capturing and identification of kinases from mixed HeLa placenta lysates; endogenous in cells; host or cells: mixed lysate of HeLa cells and placenta tissue
Protocol: as §1

GCK = biological target: T1, GCK (Homo sapiens, UniProt Q12851); test: as above; parameters: capturing and identification of kinases from mixed HeLa placenta lysates; endogenous in cells; host or cells: mixed lysate of HeLa cells and placenta tissue
T1 sequence (Q12851 1-820): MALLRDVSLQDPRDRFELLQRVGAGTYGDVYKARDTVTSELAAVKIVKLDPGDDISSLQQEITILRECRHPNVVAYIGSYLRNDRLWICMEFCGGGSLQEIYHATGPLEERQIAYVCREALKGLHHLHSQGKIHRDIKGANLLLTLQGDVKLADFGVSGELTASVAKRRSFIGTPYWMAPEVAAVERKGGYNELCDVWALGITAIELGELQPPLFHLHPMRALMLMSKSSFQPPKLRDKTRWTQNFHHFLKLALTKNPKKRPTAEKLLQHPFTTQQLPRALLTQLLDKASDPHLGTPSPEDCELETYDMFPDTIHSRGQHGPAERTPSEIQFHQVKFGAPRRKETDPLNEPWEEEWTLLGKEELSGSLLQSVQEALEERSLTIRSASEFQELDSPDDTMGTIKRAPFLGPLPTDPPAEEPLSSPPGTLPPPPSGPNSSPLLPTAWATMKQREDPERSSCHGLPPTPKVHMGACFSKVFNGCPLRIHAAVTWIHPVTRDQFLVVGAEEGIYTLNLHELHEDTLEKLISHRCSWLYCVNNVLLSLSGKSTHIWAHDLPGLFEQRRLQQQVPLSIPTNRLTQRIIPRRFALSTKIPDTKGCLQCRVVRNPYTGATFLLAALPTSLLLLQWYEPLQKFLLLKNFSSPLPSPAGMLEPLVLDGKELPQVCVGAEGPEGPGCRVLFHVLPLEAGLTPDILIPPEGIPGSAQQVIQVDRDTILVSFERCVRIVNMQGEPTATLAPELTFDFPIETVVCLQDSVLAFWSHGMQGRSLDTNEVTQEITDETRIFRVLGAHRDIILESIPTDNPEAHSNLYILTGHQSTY
Protocol: as §1

Sequence of AurB (Q96GD4 whole entry): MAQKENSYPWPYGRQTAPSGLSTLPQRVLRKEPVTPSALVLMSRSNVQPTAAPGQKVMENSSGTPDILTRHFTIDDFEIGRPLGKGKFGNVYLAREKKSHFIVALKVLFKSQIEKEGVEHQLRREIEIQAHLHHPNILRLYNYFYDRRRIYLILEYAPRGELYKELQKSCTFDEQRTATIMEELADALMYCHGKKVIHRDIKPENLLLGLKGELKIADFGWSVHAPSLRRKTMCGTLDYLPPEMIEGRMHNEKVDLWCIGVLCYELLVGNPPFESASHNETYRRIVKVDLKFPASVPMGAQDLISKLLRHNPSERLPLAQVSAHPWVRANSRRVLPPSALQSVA
Sequence of Erk1 (P27361 whole entry): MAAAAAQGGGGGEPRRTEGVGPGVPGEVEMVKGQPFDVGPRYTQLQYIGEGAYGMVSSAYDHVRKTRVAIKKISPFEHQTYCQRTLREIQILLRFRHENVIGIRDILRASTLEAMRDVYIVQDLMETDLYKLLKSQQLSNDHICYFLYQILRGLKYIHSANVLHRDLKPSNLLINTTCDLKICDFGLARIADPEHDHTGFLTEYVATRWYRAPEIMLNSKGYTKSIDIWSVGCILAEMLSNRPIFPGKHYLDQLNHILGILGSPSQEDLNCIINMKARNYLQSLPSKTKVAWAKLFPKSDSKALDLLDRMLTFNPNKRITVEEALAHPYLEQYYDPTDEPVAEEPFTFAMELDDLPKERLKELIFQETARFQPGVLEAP
Sequence of CaMK2d (Q13557 whole entry): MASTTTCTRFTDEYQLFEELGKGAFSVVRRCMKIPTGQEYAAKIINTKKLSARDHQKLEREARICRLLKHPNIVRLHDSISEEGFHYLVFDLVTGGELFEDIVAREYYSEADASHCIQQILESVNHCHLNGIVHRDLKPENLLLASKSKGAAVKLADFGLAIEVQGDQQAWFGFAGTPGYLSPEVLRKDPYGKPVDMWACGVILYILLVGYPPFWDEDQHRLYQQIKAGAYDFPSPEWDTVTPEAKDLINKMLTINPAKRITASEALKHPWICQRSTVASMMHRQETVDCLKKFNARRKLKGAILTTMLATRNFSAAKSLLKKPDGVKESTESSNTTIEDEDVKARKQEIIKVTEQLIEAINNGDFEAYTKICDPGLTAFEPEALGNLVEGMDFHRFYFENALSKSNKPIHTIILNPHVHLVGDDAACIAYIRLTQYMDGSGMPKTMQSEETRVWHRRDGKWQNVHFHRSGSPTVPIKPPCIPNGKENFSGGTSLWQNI

For `CS(=O)(=O)Nc1ccccc1Nc1nc(Nc2cccc(OCCN)c2)ncc1Cl` [CZC31326, N-(2-(2-(3-(2-aminoethoxy)phenylamino)-5-chloropyrimidin-4-ylamino)phenyl)methanesulfonamide], the inhibition at 10 µM (Erk1) was 84.8%, the inhibition at 10 µM (AurB) was 90.8% and the inhibition at 10 µM (CaMK2d) was 72.1%. For the same compound, the inhibition at 10 µM (GCK) was 93.8%.
